PMC12457078, “Inhibition of soluble epoxide hydrolase in endotoxin induced pig lung injury” (Frontiers in Pharmacology, 2025)
Several values for one entry are separate records, joined by “and”; a condition that tells them apart may be missing. Identical values can stand only once. Entries after “also recorded” stand apart in the source; their conditions may differ.

Tested on: endotoxin-induced lung injury
Test: porcine model of LPS-induced acute lung injury: haemodynamics, ventilation/mechanics, blood gases, P/F, chemistry, temperature, survival
Format: in vivo, pig
Set-up: AF baseline / AF end / Ven. sat end: unit not given here; PaO2 3 h / PaO2 6 h: unit: kPa
Procedure: The animals were bred for purpose at the Forslunda Agricultural School in Umeå, Sweden. The pigs were pairwise kept in 8 m^2 pens before start of experiments and were fed twice daily with a commercially available pig diet without antimicrobials, and with free access to water. Photoperiods were 12:12 h light:dark. Room temperature in their stall was 20 °C ± 1 °C.
After overnight fasting, but with free access to water and hay, animals were pre-medicated with ketamine (Ketaminol vet® 100 mg/mL; Intervet International B.V, Boxmeer, Netherlands), xylazine (Rompun® vet 20 mg/mL; Bayer Animal Health, Copenhagen, Denmark) and atropine (Atropin Mylan 0.5 mg/mL; Mylan AB, Stockholm, Sweden) by intramuscular injection before an auricular vein was cannulated. Anesthesia was induced with ketamine and midazolam (Midazolam Hameln 5 mg/mL, Hameln Pharmaceuticals, Hameln, Germany) and maintained with ketamine, midazolam, xylazine and fentanyl (Fentanyl 0.05 mg/mL, B. Braun Medical AB, Danderyd, Sweden). The animals were orotracheally intubated and ventilated with tidal volume 8–9 mL/kg, PEEP 8 cmH2O, and a respiratory rate set to achieve an end-tidal carbon dioxide of 5–5.5 kPa.
One animal served as a pharmacokinetic pilot, with arterial and venous catheters placed in a cut-down in the neck. The remaining 21 animals were used for the randomized study (Figure 1). After intubation and start of mechanical ventilation, a second auricular vein cannula was placed and infusion of either AEPU or placebo according to randomization was started. After 2 h of infusion of AEPU or placebo, an infusion of LPS was started. A bolus of 0.1 mg/kg was administered during 30 min after which the infusion rate was adjusted to 0.01 mg/kg/h. During the time between start of AEPU or placebo and LPS infusion, neck dissection was performed, exposing the v jugularis externa and carotid artery. A pulmonary artery introducer and an arterial cannula were placed in vein and artery respectively, and a pulmonary artery catheter introduced through the introducer and the tip placed in the correct position in the pulmonary artery placement guided by continuous invasive pressure monitoring or, when difficult, assisted by fluoroscopy. All surgical procedures were performed under sterile conditions.
AEPU was synthesized according to Kim et al. ([Kim et al., 2007]), delivered in 60 mg vials and dissolved in 30 mL pure ethanol as a co-solvent, of which either 20 mL was added to 980 mL of sodium chloride 9 mg/mL or 8 mL–392 mL sodium chloride, creating a solution of 0.04 mg/mL AEPU and 2% ethanol. The placebo infusion was prepared by adding either 20 mL of pure ethanol to 980 mL of sodium chloride 9 mg/mL or 8 mL of pure ethanol to 392 mL sodium chloride, creating a 2% ethanol solution. Each animal received an infusion of either 0.1 mg/kg/h AEPU or the corresponding volume of placebo solution.
A total of 200 mg of prefabricated lipopolysaccharides (LPS, Escherichia coli serotype 0,111:B4, Sigma-Aldrich (Product no L4130), St. Louis, MO, United States of America) was dissolved in 40 mL of sterile water, carefully mixed and filtered, creating a solution of 5 mg/mL. This preparation was stored frozen (−20 °C) in 1 mL partitions. For each animal, 2 mL of the thawed solution was mixed and diluted in 18 mL of sodium chloride, finally creating a 0.5 mg/mL LPS solution for infusion.
All animals were monitored with pulse oximetry, heart rate, ECG, systemic arterial blood pressure (ABP), pulmonary arterial pressure (PAP), central venous pressure (CVP) temperature, tidal volumes, respiratory rate and end tidal carbon dioxide. At baseline, and at 3 h, 6 h and at the end of the experiment, pulmonary capillary wedge pressure (PCWP) was measured together with arterial and venous blood gas analyses, as well as cardiac output calculations. […]

[1] = 3 h, individual animals, listed as sEH-i 950
[2] = 6 h, individual animals, listed as sEH-i 950
[3] = Lungmekanik, 3 h, individual animals, listed as sEH-i 950
[4] = Lungmekanik, 6 h, individual animals, listed as sEH-i 950
[5] = Lungmekanik, baseline, individual animals, listed as sEH-i 950
[6] = Lungmekanik, end, individual animals, listed as sEH-i 950
[7] = baseline, individual animals, listed as sEH-i 950
[8] = end, individual animals, listed as sEH-i 950
[9] = individual animals, 3 h, listed as sEH-i 950

## CCOCCOCCOCCCCCNC(=O)NC12CC3CC(CC(C3)C1)C2 [Compound 950]
[1]
  AF 3 h: 41 and 50 and 42 and 48 and 30 and 45 and 39 and 44 and 40
  FiO2 3 h: 0.4 and 0.5
  PaO2 3 h: 22.1 and 20.1 and 17 and 22.7 and 19.3 and 16.7 and 9 and 8.1 and 7.3 and 14.7
[2]
  AF 6 h: 40 and 54 and 50 and 48 and 30 and 45 and 39 and 44
  FiO2 6 h: 0.4 and 0.5 and 0.8 and 0.7 and 1
  PaO2 6 h: 19.6 and 12.3 and 11.8 and 18.6 and 18.5 and 14.7 and 8.7 and 9.4 and 6.8 and 7.9
AEPU 0.1 mg/kg/h infusion vs placebo
  lung injury development in LPS treated pigs: did not attenuate
AEPU group, did not survive entire protocol
  Premature death: 40%
Ja = actively terminated, Nej = died, individual animals, listed as sEH-i 950
  Mortalitet: Aktivt avslut: Nej and Ja and Nej*
[3]
  PIP 3 h: 31 cmH2O and 28 cmH2O and 32 cmH2O and 24 cmH2O and 26 cmH2O and 34 cmH2O and 39 cmH2O and 44 cmH2O and 36 cmH2O
  Pmedel 3 h: 14 cmH2O and 15 cmH2O and 12 cmH2O and 13 cmH2O and 16 cmH2O and 17 cmH2O
  Pplat 3 h: 26 cmH2O and 23 cmH2O and 22 cmH2O and 27 cmH2O and 28 cmH2O and 25 cmH2O and 34 cmH2O and 33 cmH2O
[4]
  PIP 6 h: 32 cmH2O and 33 cmH2O and 28 cmH2O and 30 cmH2O and 22 cmH2O
  Pmedel 6 h: 13 cmH2O and 15 cmH2O and 14 cmH2O and 12 cmH2O
  Pplat 6 h: 27 cmH2O and 26 cmH2O and 23 cmH2O and 21 cmH2O and 18 cmH2O
[5]
  PIP baseline: 25 cmH2O and 23 cmH2O and 19 cmH2O and 24 cmH2O and 26 cmH2O and 27 cmH2O
  Pmedel baseline: 12 cmH2O and 15 cmH2O and 13 cmH2O and 11 cmH2O and 14 cmH2O
  Pplat baseline: 19 cmH2O and 16 cmH2O and 18 cmH2O and 22 cmH2O and 17 cmH2O
[6]
  PIP end: 30 cmH2O and 37 cmH2O and 29 cmH2O and 28 cmH2O and 46 cmH2O
  Pmedel end: 13 cmH2O and 16 cmH2O and 14 cmH2O
  Pplat end: 24 cmH2O and 29 cmH2O and 22 cmH2O and 28 cmH2O
P/F-kvot, 3 h, individual animals, listed as sEH-i 950
  PaO2/FiO2 3h: 55.25 and 40.2 and 42.5 and 56.75 and 48.25 and 41.75 and 22.5 and 16.2 and 18.25 and 36.75
P/F-kvot, 6 h, individual animals, listed as sEH-i 950
  PaO2/FiO2 6h: 49 and 24.6 and 23.6 and 46.5 and 46.25 and 36.75 and 10.87 and 13.43 and 6.8 and 19.75
P/F-kvot, baseline, individual animals, listed as sEH-i 950
  PaO2/FiO2 baseline: 73.75 and 71.5 and 73 and 67 and 72.75 and 65.25 and 70.5 and 72.25 and 61.75 and 74.75
P/F-kvot, end, individual animals, listed as sEH-i 950
  PaO2/FiO2 end: 49.75 and 16.75 and 24 and 48.75 and 30.5 and 4.4 and 8.7
baseline, individual animals
  FiO2 baseline: 0.4
[7]
  AF baseline: 40 and 42 and 26 and 34 and 46
  PaO2 baseline: 29.5 and 28.6 and 29.2 and 26.8 and 29.1 and 26.1 and 28.2 and 28.9 and 24.7 and 29.9
Cause of death, individual animals, listed as sEH-i 950
  Mortalitet: Dödsorsak: Cirkulationssvikt; also recorded: Adrenalinet tog slut…; also recorded: *Tubbyte/Hypoxi; also recorded: Lungsvikt/Hypoxi
Change of P/F from baseline to 3 h, individual animals, listed as sEH-i 950
  P/F 3h - baseline: -18.5 and -31.3 and -30.5 and -10.25 and -24.5 and -23.5 and -48 and -56.05 and -43.5 and -38
Change of P/F from baseline to 6 h, individual animals, listed as sEH-i 950
  P/F 6h - baseline: -24.75 and -46.9 and -49.4 and -20.5 and -26.5 and -28.5 and -59.625 and -58.8214 and -54.95 and -55
Change of P/F from baseline to 9 h (end), individual animals, listed as sEH-i 950
  P/F 9h- baseline: -24 and -54.75 and -49 and -18.25 and -34.75 and -66.1 and -63.55
Comments on clinical course, individual animals, listed as sEH-i 950
  Mortalitet, kommentarer: Instabil. Död i högersvikt 16.20 trots adrenalin; also recorded: Tidig start adrenalininf pga lågt CO; also recorded: Mycket svårt septisk. Extrema doser adrenalin; also recorded: Mycket svårt septisk. Högersvikt; also recorded: Relativt stabil. Nästan frisk i slutet; also recorded: Försök till tubbyte -> hypoxi + död; also recorded: Standardupplägg. Ter sig septisk redan vid induktion; also recorded: Svårt septisk redan från första början. Instabil. Död i cirkulationssvikt något i förtid. Misslyckad deff; also recorded: Septisk. Kräver adrenalininf. Uttalad lungskada. Lågt CO på slutet. Högdos adrenalin. Svår hjärtsvikt; also recorded: Svår sepsis med ffa svår lungsvikt. Mors i hypoxi efter 6 h. Sista prov (6h) några minuter före död. PSVT upprepat med självterminerande vid LPS-bolus
End of experiment, AEPU group
  Fluid administration total: 5785 (5080–7210) mL
  Urine output: 700 (320–1200) mL
[8]
  AF end: 40 and 54 and 50 and 48 and 45 and 39 and 44
  FiO2 end: 0.4 and 0.8 and 0.5 and 1
  PaO2 end: 19.9 and 13.4 and 12 and 19.5 and 12.2 and 4.4 and 8.7
[9]
  CO 3 h: 3.2 L/min and 5.3 L/min and 3.6 L/min and 3.3 L/min and 5.7 L/min and 3.1 L/min and 4.2 L/min
  CVP 3 h: 15 mmHg and 21 mmHg and 14 mmHg and 10 mmHg and 17 mmHg and 18 mmHg and 13 mmHg and 16 mmHg
  HR 3 h: 141 and 137 and 175 and 135 and 140 and 119 and 162 and 144 and 164 and 114
  MAP 3 h: 110 mmHg and 107 mmHg and 58 mmHg and 72 mmHg and 94 mmHg and 79 mmHg and 88 mmHg and 106 mmHg and 52 mmHg and 99 mmHg
  MPAP 3 h: 65 mmHg and 39 mmHg and 41 mmHg and 43 mmHg and 46 mmHg and 47 mmHg and 54 mmHg and 51 mmHg and 55 mmHg
  PCWP 3 h: 21 mmHg and 15 mmHg and 17 mmHg and 19 mmHg
  PaCO2 3 h: 4.9 kPa and 5.9 kPa and 6.6 kPa and 5.6 kPa and 6.5 kPa and 5.2 kPa and 5.7 kPa and 6.9 kPa and 7.7 kPa and 5.8 kPa
